Measured values published in US12054486B2, “Pyridine derivatives and their use as sodium channel activators” (Xenon Pharmaceuticals Inc., priority 2021, dated 2024).
Structures can show the parent of a compound that is named as a salt.

Molecular target: sodium channel isoforms of interest stably expressed in Human Embryonic Kidney Cells (voltage-gated sodium channel, particularly NaV1.1) (Homo sapiens, UniProt P35498)
Test: automated planar patch clamp assay of sodium channel gating (area under the sodium current trace)
Assay type: cell-based
Conditions: HEK cells, voltage step from −120 mV to 0 mV, increasing concentrations
Description: A typical assay described in Crestey, F. et al., ACS Chem Neurosci (2015), Vol. 6, pp. 1302-1308, AA43279 (Frederiksen, K. et al., Eur J Neurosci (2017), Vol. 46, pp. 1887-1896) and Lu AE98134 (von Schoubyea, N. L. et al., Neurosci Lett (2018), Vol. 662, pp. 29-35) employs the use of automated planar patch clamp techniques to study the effects of the chemical agent on the gating of sodium channels. The sodium channel isoforms of interest are stably expressed in Human Embryonic Kidney Cells and the currents that flow through those channels in response to a depolarizing voltage clamp step from −120 mV to 0 mV are measured in the presence of increasing concentrations of the chemical agents. The area under the sodium current trace which correlates to the magnitude of sodium flux through the cell membrane is used to quantify the effects on gating of the channels. Other parameters that are measured in the assay include the peak current, time constant of open state inactivation and the voltage dependence of steady state inactivation properties. The concentration responses are used to determine potency of each chemical agents effects on modulating the sodium channel isoform gating. Such techniques are known to those skilled in the art, and may be developed, using current technologies, into low or medium throughput assays for evaluating compounds for their ability to modulate sodium channel behaviour.
As disclosed above, typical assays for testing compounds of the disclosure are known, for example as disclosed in Crestey, F. et al., ACS Chem Neurosci (2015), Vol. 6, pp. 1302-1308, AA43279 (Frederiksen, K. et al., Eur J Neurosci (2017), Vol. 46, pp. 1887-1896) and Lu AE98134 (von Schoubyea, N. L. et al., Neurosci Lett (2018), Vol. 662, pp. 29-35) which employs the use of automated planar patch clamp techniques to study the effects of the chemical agent on the gating of sodium channels. The sodium channel isoforms of interest are stably expressed in Human Embryonic Kidney Cells and the currents that flow through those channels in response to a depolarizing voltage clamp step from −120 mV to 0 mV are measured in the presence of increasing concentrations of the chemical agents. The area under the sodium current trace which correlates to the magnitude of sodium flux through the cell membrane is used to quantify the effects on gating of the channels. Other parameters that are measured in the assay include the peak current, time constant of open state inactivation and the voltage dependence of steady state inactivation properties. The concentration responses are used to determine potency of each chemical agents effects on modulating the sodium channel isoform gating.

| SMILES | EC50 [µM] | Empirical Emax |
| --- | --- | --- |
| CC(C)c1ccc(-c2nnc(-c3c(-c4ccccc4)ccnc3N3CC[C@H](F)C3)o2)cc1 [Example 30, (S)-2-(2-(3-fluoropyrrolidin-1-yl)-4-phenylpyridin-3-yl)-5-(4-isopropylphenyl)-1,3,4-oxadiazole] | 1 to 10 | + (+ indicates a value less than 2.0 μM) |
| CC(C)(C)c1ccc2nc(-c3c(-c4ccccc4)ncnc3N3CCCC3)[nH]c2c1 [Example 31, 6-(tert-butyl)-2-(4-phenyl-6-(pyrrolidin-1-yl)pyrimidin-5-yl)-1H-benzo[d]imidazole] | 1 to 10 | +++ (+++ indicates a value from 5.0 up to 7.5 μM) |
| F[C@H]1CCN(c2nccc(-c3ccccc3)c2-c2nnn[nH]2)C1 [Example 32, (S)-2-(3-fluoropyrrolidin-1-yl)-4-phenyl-3-(1H-tetrazol-5-yl)pyridine] | < 1 | + (+ indicates a value less than 2.0 μM) |
| Cc1nc(-c2c(-c3ccccc3)ccnc2N2CC[C@H](F)C2)[nH]c1C(F)(F)F [Example 33, (S)-2-(3-fluoropyrrolidin-1-yl)-3-(4-methyl-5-(trifluoromethyl)-1H-imidazol-2-yl)-4-phenylpyridine] | 10 to 50 | ++ (++ indicates a value from 2.0 up to 5.0 μM) |
| CC(C)(C)OC(=O)N1CCc2nc(-c3c(-c4ccccc4)ccnc3N3CC[C@H](F)C3)[nH]c2C1 [Example 34, Tert-Butyl (S)-2-(2-(3-fluoropyrrolidin-1-yl)-4-phenylpyridin-3-yl)-3,4,6,7-tetrahydro-5H-imidazo[4,5-c]pyridine-5-carboxylate] | 1 to 10 | +++ (+++ indicates a value from 5.0 up to 7.5 μM) |
| F[C@H]1CCN(c2nccc(-c3ccccc3)c2-c2nc3c([nH]2)CNCC3)C1 [Example 35, (S)-2-(2-(3-fluoropyrrolidin-1-yl)-4-phenylpyridin-3-yl)-4,5,6,7-tetrahydro-3H-imidazo[4,5-c]pyridine 2,2,2-trifluoroacetic Acid Salt (Free Acid)] | ≥ 50 | + (+ indicates a value less than 2.0 μM) |
| CN1CCc2nc(-c3c(-c4ccccc4)ccnc3N3CC[C@H](F)C3)[nH]c2C1 [Example 36, (S)-2-(2-(3-fluoropyrrolidin-1-yl)-4-phenylpyridin-3-yl)-5-methyl-4,5,6,7-tetrahydro-3H-imidazo[4,5-c]pyridine] | 10 to 50 | + (+ indicates a value less than 2.0 μM) |
| CC(=O)N1CCc2nc(-c3c(-c4ccccc4)ccnc3N3CC[C@H](F)C3)[nH]c2C1 [Example 37, (S)-1-(2-(2-(3-fluoropyrrolidin-1-yl)-4-phenylpyridin-3-yl)-3,4,6,7-tetrahydro-5H-imidazo[4,5-c]pyridin-5-yl)ethan-1-one] | 10 to 50 |  |
| CC(C)N1CCc2nc(-c3c(-c4ccccc4)ccnc3N3CC[C@H](F)C3)[nH]c2C1 [Example 38, (S)-2-(2-(3-fluoropyrrolidin-1-yl)-4-phenylpyridin-3-yl)-5-isopropyl-4,5,6,7-tetrahydro-3H-imidazo[4,5-c]pyridine] | ≥ 50 | + (+ indicates a value less than 2.0 μM) |
| F[C@H]1CCN(c2nccc(-c3ccccc3)c2-c2nc3c([nH]2)CN(C2COC2)CC3)C1 [Example 39, (S)-2-(2-(3-fluoropyrrolidin-1-yl)-4-phenylpyridin-3-yl)-5-(oxetan-3-yl)-4,5,6,7-tetrahydro-3H-imidazo[4,5-c]pyridine] | 10 to 50 | ++ (++ indicates a value from 2.0 up to 5.0 μM) |
| CCOC(=O)N1CCc2nc(-c3c(-c4ccccc4)ccnc3N3CC[C@H](F)C3)n(C(=O)OCC)c2C1 [Example 40, diethyl (S)-2-(2-(3-fluoropyrrolidin-1-yl)-4-phenylpyridin-3-yl)-6,7-dihydro-3H-imidazo[4,5-c]pyridine-3,5(4H)-dicarboxylate] | 1 to 10 | +++ (+++ indicates a value from 5.0 up to 7.5 μM) |
| CC(C)C(=O)N1CCc2nc(-c3c(-c4ccccc4)ccnc3N3CC[C@H](F)C3)[nH]c2C1 [Example 41, (S)-1-(2-(2-(3-fluoropyrrolidin-1-yl)-4-phenylpyridin-3-yl)-3,4,6,7-tetrahydro-5H-imidazo[4,5-c]pyridin-5-yl)-2-methylpropan-1-one] | ≥ 50 | + (+ indicates a value less than 2.0 μM) |
| F[C@H]1CCN(c2nccc(-c3ccccc3)c2-c2nc3c([nH]2)CN(Cc2ccccc2)CC3)C1 [Example 42, (S)-5-benzyl-2-(2-(3-fluoropyrrolidin-1-yl)-4-phenylpyridin-3-yl)-4,5,6,7-tetrahydro-3H-imidazo[4,5-c]pyridine] | < 1 | ++ (++ indicates a value from 2.0 up to 5.0 μM) |
| FC1(F)CCN(c2nccc(-c3ccccc3)c2-c2nc3c([nH]2)COCC3)C1 [Example 43, 2-(2-(3,3-difluoropyrrolidin-1-yl)-4-phenylpyridin-3-yl)-3,4,6,7-tetrahydropyrano[3,4-d]imidazole] | < 1 | +++ (+++ indicates a value from 5.0 up to 7.5 μM) |
| c1ccc(-c2ccnc(N3CCCC3)c2-c2nc3c([nH]2)COCC3)cc1 [Example 44, 2-(4-phenyl-2-(pyrrolidin-1-yl)pyridin-3-yl)-3,4,6,7-tetrahydropyrano[3,4-d]imidazole] | 1 to 10 | +++ (+++ indicates a value from 5.0 up to 7.5 μM) |
| FC1(F)C2CN(c3nccc(-c4ccccc4)c3-c3nc4c([nH]3)COCC4)CC21 (centres unmarked) [Example 45, 2-(2-(6,6-difluoro-3-azabicyclo[3.1.0]hexan-3-yl)-4-phenylpyridin-3-yl)-3,4,6,7-tetrahydropyrano[3,4-d]imidazole] | < 1 | +++ (+++ indicates a value from 5.0 up to 7.5 μM) |
| N#CC1CCN(c2nccc(-c3ccccc3)c2-c2nc3c([nH]2)COCC3)C1 (centres unmarked) [Example 46] | 1 to 10 | +++ (+++ indicates a value from 5.0 up to 7.5 μM) |
| FC(F)(F)C1CCN(c2nccc(-c3ccccc3)c2-c2nc3c([nH]2)COCC3)C1 (centres unmarked) [Example 47, 2-(4-phenyl-2-(3-(trifluoromethyl)pyrrolidin-1-yl)pyridin-3-yl)-3,4,6,7-tetrahydropyrano[3,4-d]imidazole] | 1 to 10 | +++ (+++ indicates a value from 5.0 up to 7.5 μM) |
| F[C@@H]1CN(c2nccc(-c3ccccc3)c2-c2nc3c([nH]2)COCC3)C[C@@H]1F [Example 48, 2-(2-((3S,4R)-3,4-difluoropyrrolidin-1-yl)-4-phenylpyridin-3-yl)-3,4,6,7-tetrahydropyrano[3,4-d]imidazole] | 1 to 10 | +++ (+++ indicates a value from 5.0 up to 7.5 μM) |
| FC1(F)CCCN(c2nccc(-c3ccccc3)c2-c2nc3c([nH]2)COCC3)C1 [Example 49, 2-(2-(3,3-difluoropiperidin-1-yl)-4-phenylpyridin-3-yl)-3,4,6,7-tetrahydropyrano[3,4-d]imidazole] | 10 to 50 | ++ (++ indicates a value from 2.0 up to 5.0 μM) |
| FC1(F)CC2(CN(c3nccc(-c4ccccc4)c3-c3nc4c([nH]3)COCC4)C2)C1 [Example 50, 2-(2-(6,6-difluoro-2-azaspiro[3.3]heptan-2-yl)-4-phenylpyridin-3-yl)-3,4,6,7-tetrahydropyrano[3,4-d]imidazole] | 10 to 50 | ++ (++ indicates a value from 2.0 up to 5.0 μM) |
